Experimental data published in publication PMC9645637 (PLOS ONE, 2022).
Read-outs that look alike come from different tables or passages of the source.

Legend:
[1] = molecular target: T1, An. gambiae AChE (Anopheles gambiae, UniProt Q869C3); experiment: AChE assay (modified Ellman assay), mosquito homogenate; format: biochemical
T1 construct: Mosquitoes from the four Anopheles colonies were separately homogenized in Na2HPO4, 1% Triton X-100 (pH 8.0) and used as an enzyme source; from tissue; host or cells: whole mosquito homogenate (An. gambiae colony)
T1 sequence (Q869C3 39-737): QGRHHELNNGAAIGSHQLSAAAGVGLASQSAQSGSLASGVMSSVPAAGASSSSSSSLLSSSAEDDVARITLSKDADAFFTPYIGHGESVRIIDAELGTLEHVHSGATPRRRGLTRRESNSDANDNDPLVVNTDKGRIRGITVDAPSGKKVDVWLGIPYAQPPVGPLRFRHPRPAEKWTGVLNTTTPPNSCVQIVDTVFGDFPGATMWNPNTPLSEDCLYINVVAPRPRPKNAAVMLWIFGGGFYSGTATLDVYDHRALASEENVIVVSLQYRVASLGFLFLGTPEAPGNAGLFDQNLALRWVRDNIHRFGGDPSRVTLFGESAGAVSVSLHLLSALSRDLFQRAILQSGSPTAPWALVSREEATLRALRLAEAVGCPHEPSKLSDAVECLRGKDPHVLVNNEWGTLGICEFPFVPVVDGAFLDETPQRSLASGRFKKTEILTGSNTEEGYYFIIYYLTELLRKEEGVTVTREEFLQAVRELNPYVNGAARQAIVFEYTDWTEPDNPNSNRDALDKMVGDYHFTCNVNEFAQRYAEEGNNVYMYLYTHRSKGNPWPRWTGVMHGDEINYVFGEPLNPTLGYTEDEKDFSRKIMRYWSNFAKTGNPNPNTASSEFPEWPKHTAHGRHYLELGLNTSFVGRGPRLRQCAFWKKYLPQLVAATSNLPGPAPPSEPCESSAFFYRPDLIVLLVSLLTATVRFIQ
Protocol: (§1) Mosquitoes from the four Anopheles colonies were separately homogenized in Na2HPO4, 1% Triton X-100 (pH 8.0) and used as an enzyme source. Protein content was assessed using the standard Lowry protein assay. The incubation mixture in a 96-well plate consisted of 20 μl of the enzyme in 132 μL of the assay buffer (Na2HPO4, 1% Triton X-100; pH 8.0). […] Ellman’s reagent, 5,5′-dithiobis(2-nitrobenzoic acid) (DTNB), was freshly prepared in sodium phosphate buffer (dibasic; pH 7.0) and 8 μL (0.2 mM) added to the incubation mixture. To initiate the reaction, 20 μL (1 mM) of the AChE substrate, acetylthiocholine iodide was added making a total volume of 200 μL in each well and the absorbance readings were obtained using the UV-Visible spectrophotometer at 412 nm. Propoxur was kept as a positive control on the basis of having both AChE and larvicidal activities, while DMSO was used as a negative control. […] However, the insecticide propoxur was also assessed against this target to determine AChE selectivity between electric eel and Anopheles and subsequent comparison with the test compounds.
(§2) All in vitro and in vivo assays were performed in triplicate.

[2] = test system: An. funestus AChE; experiment: as above; format: biochemical; conditions: read-out: Anopheles AChE inhibition IC50 ± SE (95% confidence interval range)
Protocol: as §1, §2

[3] = molecular target: An. arabiensis AChE (Anopheles gambiae, UniProt Q869C3); experiment: as above; format: biochemical
Sequence of An. arabiensis AChE (Q869C3 162-698 limits assumed): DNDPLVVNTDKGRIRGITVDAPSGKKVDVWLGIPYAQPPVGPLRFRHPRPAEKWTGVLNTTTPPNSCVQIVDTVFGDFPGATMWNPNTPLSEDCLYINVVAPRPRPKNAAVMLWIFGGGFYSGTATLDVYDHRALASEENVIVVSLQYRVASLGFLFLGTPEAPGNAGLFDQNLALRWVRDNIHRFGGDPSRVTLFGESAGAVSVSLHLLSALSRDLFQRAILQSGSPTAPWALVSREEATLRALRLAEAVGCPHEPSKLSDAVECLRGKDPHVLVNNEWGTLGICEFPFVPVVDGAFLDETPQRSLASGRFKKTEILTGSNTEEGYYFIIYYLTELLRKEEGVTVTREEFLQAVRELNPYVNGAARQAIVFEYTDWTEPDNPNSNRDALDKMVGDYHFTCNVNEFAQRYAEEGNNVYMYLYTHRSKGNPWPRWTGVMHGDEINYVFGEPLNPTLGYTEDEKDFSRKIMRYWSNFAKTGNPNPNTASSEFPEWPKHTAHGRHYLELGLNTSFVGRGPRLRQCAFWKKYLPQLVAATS
Protocol: as §1, §2

[4] = molecular target: electric eel AChE (Electrophorus electricus, UniProt O42275); experiment: AChE assay (modified Ellman assay), electric eel AChE; format: biochemical
Sequence of electric eel AChE (O42275 24-633): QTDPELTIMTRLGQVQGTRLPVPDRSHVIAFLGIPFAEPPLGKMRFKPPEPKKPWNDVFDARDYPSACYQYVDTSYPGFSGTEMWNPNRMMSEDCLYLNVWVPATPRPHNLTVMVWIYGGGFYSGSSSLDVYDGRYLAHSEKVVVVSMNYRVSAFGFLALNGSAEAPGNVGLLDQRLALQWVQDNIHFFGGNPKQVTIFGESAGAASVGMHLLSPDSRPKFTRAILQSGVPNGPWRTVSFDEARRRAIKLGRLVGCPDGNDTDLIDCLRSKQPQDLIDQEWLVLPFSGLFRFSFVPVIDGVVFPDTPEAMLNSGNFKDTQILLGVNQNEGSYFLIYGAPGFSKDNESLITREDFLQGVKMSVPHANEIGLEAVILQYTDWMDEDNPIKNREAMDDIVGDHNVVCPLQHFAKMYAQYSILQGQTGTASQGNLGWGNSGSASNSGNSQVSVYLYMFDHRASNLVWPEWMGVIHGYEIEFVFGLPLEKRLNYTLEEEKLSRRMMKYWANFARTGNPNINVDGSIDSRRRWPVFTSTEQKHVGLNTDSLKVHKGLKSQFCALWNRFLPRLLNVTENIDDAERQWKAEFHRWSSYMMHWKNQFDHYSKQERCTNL
Protocol: as §1, §2

[5] = test system: An. arabiensis (KWAG) larvae; experiment: Larvicidal assay (WHO bioassay for mosquito larvicides); conditions: for LC50: Anopheles arabiensis, read-out: Larvicidal LC50 (95% confidence interval range)
Excerpt: (§3) The laboratory-reared colonies of An. funestus (FUMOZ), An. arabiensis (KWAG), An. gambiae (COGS) and An. coluzzii (G3) were used for larvicidal and AChE screening assays. These are common Anopheles species responsible for malaria transmission in Africa. These colonies were maintained under standard insectary conditions as reported by Hunt et al. and Zengenene et al.. FUMOZ was first collected from Mozambique in 2000 and has a low-level intensity of pyrethroid and carbamate resistance. KWAG was collected from KwaZulu-Natal (South Africa) in 2005 and has shown resistance to pyrethroids and the organochloride, dichloro-diphenyl-trichloroethane (DDT).
(§4) The incubation mixture was performed in a total volume of 250 mL of deionized water under 27°C and humidity ≥78%. The test compounds were dissolved in DMSO and assessed for larvicidal activity at 10 times increasing concentrations from 0.0005 μM to 500 μM. Propoxur, a standard larvicide and an AChE agent, was used as a positive control, while DMSO was employed for the negative vehicle control. Larval mortality was recorded in 24, 48 and 72 hours and larvae were fed with protein dog food at day 0 and after every mortality counting.
as §2

[6] = test system: An. funestus (FUMOZ) larvae; experiment: as above; conditions: read-out: Larvicidal LC50 (95% confidence interval range); An. funestus (FUMOZ) third-instar larvae
Excerpt: as §3, §4, §2

[7] = test system: An. gambiae (COGS) larvae; experiment: as above; conditions: Anopheles gambiae, read-out: Larvicidal LC50 (95% confidence interval range)
Excerpt: as §3, §4, §2

[8] = test system: An. coluzzii (G3) larvae; experiment: as above; conditions: read-out: Larvicidal LC50 (95% confidence interval range); An. coluzzii (G3) third-instar larvae
Excerpt: as §3, §4, §2

[9] = test system: Artemia franciscana; conditions: read-out: Brine shrimp LC50 (95% confidence interval); Artemia franciscana nauplii, 24 h
Protocol: as §2

[10] = An. gambiae homogenate, read-out: Anopheles AChE inhibition IC50 ± SE (95% confidence interval range)
[11] = An. arabiensis homogenate, read-out: Anopheles AChE inhibition IC50 ± SE (95% confidence interval range)
[12] = read-out: Electric eel AChE inhibition IC50 ± SE (95% confidence interval range)

Compound | IC50 [1] | IC50 [2] | IC50 [3] | IC50 [4] | LC50 [5] | LC50 [6] | LC50 [7] | LC50 [8] | IC50 [1, 10] | IC50 [3, 11] | IC50 [4, 12] | Fold more potent than propoxur for An. arabiensis larval toxicity ([5]; LC50 ratio versus propoxur) | LC50 [9]
CNC(=O)Oc1ccccc1OC(C)C [Propoxur, propoxur, reference compound] | 26.1 ± 6.21 µM | 0.89 ± 0.2 µM | 0.78 ± 0.16 µM | 1.28 ± 0.35 µM | 8.77 µM | 9.9 µM | 64 µM | 62.7 µM | – | – | – | – | –
O=C(NCCN1CCOCC1)C1CCN(Cc2ccccc2)CC1 [derivative 1, 1-benzyl-N-(2-morpholinoethyl) piperidine-4-carboxamide] | – | > 100 µM | – | – | > 100 µM | 2.65 µM | > 100 µM | > 100 µM | 48.9 ± 10.5 µM | > 100 µM | > 100 µM | – | –
O=C(Nc1nccs1)C1CCN(Cc2ccccc2)CC1 [derivative 2, 1-benzyl-N-(thiazol-2-yl) piperidine-4-carboxamide] | – | > 100 µM | – | – | 0.88 µM | > 100 µM | > 100 µM | > 100 µM | > 100 µM | 6.05 ± 2.21 µM | 55.7 ± 12 µM | about 10 fold | –
COc1cc(CCNC(=O)C2CCN(Cc3ccccc3)CC2)cc(OC)c1OC [derivative 3, 1-benzyl-N-(3,4,5-trimethoxyphenethyl) piperidine-4-carboxamide] | – | – | – | – | > 100 µM | > 100 µM | > 100 µM | > 100 µM | – | – | – | – | –
O=C(NCc1cccnc1)C1CCN(Cc2ccccc2)CC1 [derivative 4, 1-benzyl-N-(pyridine-3-ylmethyl) piperidine-4-carboxamide] | – | – | – | – | > 100 µM | > 100 µM | > 100 µM | > 100 µM | – | – | – | – | –
O=C(NCc1ccco1)C1CCN(Cc2ccccc2)CC1 [derivative 5, 1-benzyl-N-(furan-2-ylmethyl) piperidine-4-carboxamide] | – | > 100 µM | – | – | > 100 µM | 2.96 µM | > 100 µM | > 100 µM | 31.4 ± 7.56 µM | > 100 µM | > 100 µM | – | –
O=C(NCCc1c[nH]cn1)C1CCN(Cc2ccccc2)CC1 [derivative 6, N-[2-(1H-imidazol-4-yl)ethyl]-1-benzylpiperidine-4-carboxamide] | – | – | – | – | > 100 µM | > 100 µM | > 100 µM | > 100 µM | – | – | – | – | –
O=C(NC1CCCc2ccccc21)C1CCN(Cc2ccccc2)CC1 (centres unmarked) [derivative 7, 1-benzyl-N-(1,2,3,4-tetrahydro-naphthalen-1-yl) piperidine-4-carboxamide] | – | – | – | – | > 100 µM | > 100 µM | > 100 µM | > 100 µM | – | – | – | – | –
O=C(NCCN1CCCCC1)C1CCN(Cc2ccccc2)CC1 [derivative 8, 1-benzyl-N-(2-(piperidin-1-yl)ethyl)piperidine-4-carboxamide] | – | > 100 µM | – | – | > 100 µM | 0.8 µM | > 100 µM | > 100 µM | 28.1 ± 6.89 µM | > 100 µM | 88.3 ± 19.9 µM | – | –
O=C(NCc1ccncc1)C1CCN(Cc2ccccc2)CC1 [derivative 9, 1-benzyl-N-(pyridine-4-ylmethyl) piperidine-4-carboxamide] | – | – | – | – | > 100 µM | > 100 µM | > 100 µM | > 100 µM | – | – | – | – | –
[K+].[K+].[O]=[Cr](=[O])([O-])[O][Cr](=[O])(=[O])[O-] [potassium dichromate] | – | – | – | – | – | – | – | – | – | – | – | – | 0.004 µM
